Source: PubChem BioAssay (NCI)
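Method: 48-hour compound exposure of cells in 96-well plates, five concentrations, linear interpolation of endpoints. Abbreviation: GI50, concentration required for 50% inhibition of growth. Definition used: TGI = concentration required for complete inhibition of growth.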

How the values were obtained:
Experiment in all cases: NCI tumour cell line growth inhibition, 48 h
SN12C renal = tested on: SN12C renal
KM12 colon = tested on: KM12 colon
U251 CNS = tested on: U251 CNS
RXF 393 renal = tested on: RXF 393 renal
NCI/ADR-RES ovarian = tested on: NCI/ADR-RES ovarian
MDA-MB-231 breast = tested on: MDA-MB-231 breast
IGROV1 ovarian = tested on: IGROV1 ovarian
SR leukemia = tested on: SR leukemia
NCI-H522 lung = tested on: NCI-H522 lung
CAKI-1 renal = tested on: CAKI-1 renal

Question: What does the source list for [N-]=[N+]=Nc1cc(=O)n2c3c(cccc13)CCC2?
Answer: TGI (SN12C renal): > 100 µM; TGI (KM12 colon): > 100 µM; TGI (U251 CNS): > 100 µM; TGI (RXF 393 renal): > 100 µM; TGI (NCI/ADR-RES ovarian): > 100 µM; TGI (MDA-MB-231 breast): > 100 µM; TGI (IGROV1 ovarian): > 100 µM; TGI (SR leukemia): > 100 µM; TGI (NCI-H522 lung): > 100 µM

Question: What does the source list for CC(C)C(=O)Nc1nc2c(ncn2C2OC(CO)C(O)C2O)c(=O)[nH]1 (configuration not stated)?
Answer: TGI (CAKI-1 renal): > 100 µM; TGI (SN12C renal): > 100 µM; TGI (KM12 colon): > 100 µM; TGI (U251 CNS): > 100 µM; TGI (RXF 393 renal): > 100 µM; TGI (IGROV1 ovarian): > 100 µM; TGI (SR leukemia): > 100 µM; TGI (NCI-H522 lung): > 100 µM

Question: With CN[C@@H](C)[C@@H](NC)c1ccccc1 as the compound, how does the TGI (CAKI-1 renal) read?
Answer: The TGI was > 100 µM.

Question: And the TGI (SN12C renal)?
Answer: Its TGI is > 100 µM.

Question: What about the TGI (KM12 colon) of the same compound?
Answer: The TGI was > 100 µM.

Question: What about the TGI (U251 CNS) of the same compound?
Answer: Its TGI is 2.9 µM.

Question: What about the TGI (RXF 393 renal) of the same compound?
Answer: The TGI was > 100 µM.

Question: And the TGI (IGROV1 ovarian)?
Answer: The TGI was > 100 µM.

Question: What about the TGI (NCI-H522 lung) of the same compound?
Answer: The TGI was > 100 µM.

Question: For CCCO/S(=N\S(=O)(=O)c1ccccc1)c1ccccc1[N+](=O)[O-] (configuration not stated), which TGI (CAKI-1 renal) is on record?
Answer: The TGI was > 100 µM.

Question: What about the TGI (SN12C renal) of the same compound?
Answer: The TGI was > 100 µM.

Question: And the TGI (KM12 colon)?
Answer: Its TGI is > 100 µM.

Question: And the TGI (U251 CNS)?
Answer: Its TGI is > 100 µM.

Question: What about the TGI (IGROV1 ovarian) of the same compound?
Answer: The TGI was > 100 µM.

Question: And the TGI (SR leukemia)?
Answer: Its TGI is > 100 µM.

Question: And the TGI (NCI-H522 lung)?
Answer: Its TGI is > 100 µM.

Question: For O=[N+]([O-])c1ccc(N2N=C(c3ccc(NCc4nc5ccccc5[nH]4)cc3)CC2c2ccco2)cc1 (configuration not stated), which TGI (CAKI-1 renal) is on record?
Answer: The TGI was > 100 µM.

Question: What about the TGI (SN12C renal) of the same compound?
Answer: The TGI was 61.9 µM.

Question: What about the TGI (KM12 colon) of the same compound?
Answer: Its TGI is 41.4 µM.

Question: What about the TGI (U251 CNS) of the same compound?
Answer: Its TGI is > 100 µM.

Question: And the TGI (RXF 393 renal)?
Answer: The TGI was > 100 µM.

Question: What about the TGI (IGROV1 ovarian) of the same compound?
Answer: Its TGI is > 100 µM.

Question: And the TGI (SR leukemia)?
Answer: Its TGI is 33.8 µM.

Question: And the TGI (NCI-H522 lung)?
Answer: Its TGI is 54 µM.

Question: O=S(=O)(c1ccccc1)C1CN2OC1(S(=O)(=O)c1ccccc1)CC2c1ccc(Br)cc1 (configuration not stated) was tested. Which TGI (CAKI-1 renal) did it give?
Answer: The TGI was > 100 µM.

Question: What about the TGI (SN12C renal) of the same compound?
Answer: The TGI was > 100 µM.

Question: And the TGI (KM12 colon)?
Answer: The TGI was > 100 µM.

Question: And the TGI (U251 CNS)?
Answer: Its TGI is > 100 µM.

Question: What about the TGI (RXF 393 renal) of the same compound?
Answer: Its TGI is 46.5 µM.

Question: What about the TGI (IGROV1 ovarian) of the same compound?
Answer: The TGI was > 100 µM.

Question: And the TGI (NCI-H522 lung)?
Answer: The TGI was > 100 µM.

Question: Which TGI (CAKI-1 renal) does the source give for COc1cc(C=O)c(-c2cc(OC)c(OC)cc2C=O)cc1OC here?
Answer: The TGI was > 100 µM.

Question: What about the TGI (SN12C renal) of the same compound?
Answer: The TGI was > 100 µM.

Question: What about the TGI (KM12 colon) of the same compound?
Answer: The TGI was > 100 µM.

Question: What about the TGI (U251 CNS) of the same compound?
Answer: The TGI was > 100 µM.

Question: And the TGI (RXF 393 renal)?
Answer: Its TGI is 86.3 µM.

Question: What about the TGI (IGROV1 ovarian) of the same compound?
Answer: Its TGI is > 100 µM.

Question: What about the TGI (SR leukemia) of the same compound?
Answer: The TGI was 88.9 µM.

Question: And the TGI (NCI-H522 lung)?
Answer: Its TGI is > 100 µM.

Question: Which results are given for O=C1NC(=O)C(c2cccc([N+](=O)[O-])c2)=C1Nc1cc(Cl)c(O)c(Cl)c1?
Answer: GI50 (CAKI-1 renal): > 20.9 µM; TGI (CAKI-1 renal): > 25 µM; GI50 (SN12C renal): > 25 µM; TGI (SN12C renal): > 25 µM; GI50 (KM12 colon): > 25 µM; TGI (KM12 colon): > 25 µM; GI50 (U251 CNS): > 25 µM; TGI (U251 CNS): > 25 µM; GI50 (RXF 393 renal): > 21.7 µM; TGI (RXF 393 renal): > 25 µM; GI50 (NCI/ADR-RES ovarian): > 25 µM; TGI (NCI/ADR-RES ovarian): > 25 µM; GI50 (MDA-MB-231 breast): > 25 µM; TGI (MDA-MB-231 breast): > 25 µM; GI50 (IGROV1 ovarian): > 25 µM; TGI (IGROV1 ovarian): > 25 µM; GI50 (NCI-H522 lung): > 16.5 µM; TGI (NCI-H522 lung): > 25 µM

Question: Which GI50 (CAKI-1 renal) does the source give for COc1cc2c3c(n(CCCOC(=O)C(F)(F)F)c(=O)c2cc1OC)-c1cc2c(cc1C3=O)OCO2 here?
Answer: The GI50 was < 0.01 µM.

Question: What about the GI50 (SN12C renal) of the same compound?
Answer: Its GI50 is < 0.01 µM.

Question: And the TGI (SN12C renal)?
Answer: Its TGI is 0.0272 µM.

Question: What about the GI50 (KM12 colon) of the same compound?
Answer: The GI50 was 0.0296 µM.

Question: What about the TGI (KM12 colon) of the same compound?
Answer: Its TGI is 14.6 µM.

Question: What about the GI50 (U251 CNS) of the same compound?
Answer: The GI50 was < 0.01 µM.

Question: What about the TGI (U251 CNS) of the same compound?
Answer: Its TGI is 1.07 µM.

Question: And the GI50 (RXF 393 renal)?
Answer: Its GI50 is 0.593 µM.

Question: What about the TGI (RXF 393 renal) of the same compound?
Answer: The TGI was > 67.8 µM.

Question: What about the GI50 (NCI/ADR-RES ovarian) of the same compound?
Answer: The GI50 was < 0.0289 µM.

Question: What about the TGI (NCI/ADR-RES ovarian) of the same compound?
Answer: Its TGI is 0.137 µM.

Question: What about the GI50 (MDA-MB-231 breast) of the same compound?
Answer: The GI50 was 0.127 µM.

Question: What about the TGI (MDA-MB-231 breast) of the same compound?
Answer: Its TGI is > 49.9 µM.

Question: What about the GI50 (IGROV1 ovarian) of the same compound?
Answer: The GI50 was 0.555 µM.

Question: And the TGI (IGROV1 ovarian)?
Answer: The TGI was > 100 µM.

Question: And the GI50 (NCI-H522 lung)?
Answer: Its GI50 is 0.0167 µM.

Question: Which results are given for COC1(OC)CC2C(=O)N(Cc3ccccc3)C1C=C2S(=O)(=O)c1ccccc1 (configuration not stated)?
Answer: TGI (SN12C renal): 30.1 µM; TGI (KM12 colon): 31.6 µM; TGI (U251 CNS): 29 µM; TGI (RXF 393 renal): 29 µM; TGI (IGROV1 ovarian): > 100 µM; TGI (SR leukemia): 46.3 µM; TGI (NCI-H522 lung): 27.7 µM

Question: CC(C)N(C(=O)C12C3C4C1(I)C1C2C3(I)C41C(=O)N(C(C)C)C(C)C)C(C)C (configuration not stated) was tested. Which TGI (CAKI-1 renal) did it give?
Answer: Its TGI is > 100 µM.

Question: And the TGI (SN12C renal)?
Answer: The TGI was > 100 µM.

Question: What about the TGI (KM12 colon) of the same compound?
Answer: Its TGI is > 62.5 µM.

Question: What about the TGI (U251 CNS) of the same compound?
Answer: The TGI was > 100 µM.

Question: What about the TGI (RXF 393 renal) of the same compound?
Answer: The TGI was > 100 µM.

Question: And the TGI (IGROV1 ovarian)?
Answer: Its TGI is > 100 µM.

Question: And the TGI (NCI-H522 lung)?
Answer: Its TGI is > 100 µM.
